Source: the NIST ThermoML archive (doi:10.1016/j.jct.2010.06.011)

Experiment: xn = mol fraction of the nth substance listed
Conditions: Liquid, Vibrating tube method

COC(=O)OC [dimethyl carbonate] + CCCCCC
mass density [kg/m3]
Conditions	100 kPa	5000 kPa	10000 kPa	20000 kPa	30000 kPa	40000 kPa
293.15 K, x1 = 0.1	684.2	689.7	694.6	703.9	712.2	719.8
293.15 K, x1 = 0.2	712	717.6	722.6	732	740.4	748.1
293.15 K, x1 = 0.3	742.7	748.3	753.3	762.8	771.3	779.2
293.15 K, x1 = 0.4	776.5	782.1	787.2	796.7	805.3	813.2
293.15 K, x1 = 0.5	813.8	819.4	824.5	834	842.6	850.6
293.15 K, x1 = 0.6	855	860.5	865.5	875	883.6	891.5
293.15 K, x1 = 0.7	900.5	905.9	910.9	920.2	928.7	936.6
293.15 K, x1 = 0.8	951.6	956.8	961.6	970.7	978.9	986.8
293.15 K, x1 = 0.9	1008.5	1013.4	1018	1026.7	1034.6	1042.3
293.15 K, x1 = 0.95	1038.4	1043.2	1047.6	1056.1	1063.9	1071.5
293.15 K, x1 = 1	1069.8	1074.4	1078.6	1086.9	1094.5	1101.9
298.15 K, x1 = 0.1	679.5	685.1	–	–	–	–
298.15 K, x1 = 0.2	707	712.8	–	–	–	–
298.15 K, x1 = 0.3	737.5	743.3	–	–	–	–
298.15 K, x1 = 0.4	771.1	776.9	–	–	–	–
298.15 K, x1 = 0.5	808.2	814	–	–	–	–
298.15 K, x1 = 0.6	849.2	–	–	–	–	–
298.15 K, x1 = 0.7	894.5	–	–	–	–	–
298.15 K, x1 = 0.8	945.4	–	–	–	–	–
298.15 K, x1 = 0.9	1002.1	–	–	–	–	–
298.15 K, x1 = 0.95	1032	–	–	–	–	–
298.15 K, x1 = 1	1063.2	–	–	–	–	–
